Measured values reported in patent publication US20070050862A1, “Promoter and methods of use in plants” (priority 2005, published 2007).

Tests used:
Type in all cases: in vivo, Arabidopsis thaliana
AtCel5-GUS expression = test: GUS activity in roots of transgenic AtCel5-GUS seedlings (fluorometric MUG assay); settings: for Relative activity (GUS activity relative to controls): overlaid 24 hours with 10 ml of 100 μM ABA, fitted slope ± standard error
Description: To investigate the influence of indole-3-acetic acid (IAA; Sigma) plants were grown under liquid conditions as well as vertical plates. In all experiments the roots were separated from the shoots, frozen in liquid Nitrogen, and stored at −80° C. prior to analysis. […] Seeds were cold treated for 4 days at 4° C. to promote even germination. Liquid cultures were placed on a rotary shaker at 120 rpm and grown under 24 hours of fluorescent light at room temperature. […] Plates were transferred to the light incubator for 10 days and set in a vertical position. The inhibitory effect of NPA on root gravity perception was examined by observing the direction of root growth in plates set in a horizontal position.
For analysis of the effects of ABA, a 100 mM ABA stock solution was prepared in 100% ethanol (13.22 mg ABA/0.5 ml) and then diluted 1000× in water. Seeds expressing AtCel5-GUS were plated on agar basal medium and grown for 7 and 10 days. Under sterile conditions, plates with seedlings were opened and 10 ml of 100 μM ABA was added to bathe the seedlings. Plates were then set horizontally in the light incubator for 24 hours.
Quantification of GUS activity was performed according to the method of Jefferson et al. (1987) using the fluorogenic substrate MUG (4-methyl-umbelliferyl-β-D-glucuronide). Only root tissue was used to analyze GUS activity. Tissues were ground in MUG extraction buffer and centrifuged for 5 minutes, at maximal speed in a microfuge, to clear the supernatant. An aliquot of crude extract containing the same number of root tips per treatment was mixed with the MUG reaction buffer containing 2 mM MUG and incubated at 37° C. Five or six aliquots were taken from the enzyme reaction at 60 minute intervals. At each time point, the reaction was stopped with 0.2 M Na2CO3. Fluorescence was determined using a one-channel fluorometer (Turner Designs Picofluor) with an excitation range of 365-395 nm and emission wavelengths of greater than 430 nm. The fitted linear slope (±standard error) of fluorescence vs. incubation time was used as a relative measure of GUS content for comparison of controls and treatments.

[1] = test system: AtCel5-GUS expression in the root cap; test: Histochemical GUS staining of AtCel5-GUS seedlings
Description: For analysis of ethylene regulation, seeds expressing AtCel5-GUS were plated on agar containing half-strength MS medium supplemented with 10 μM of 1 aminocyclo-propane-1 carboxylic acid (ACC; Sigma), made from a stock (1000×) prepared in water. […]
Plant tissues were collected in 90% acetone and incubated on ice for at least 10 min. Tissues were rinsed with 50 mM NaPO4 pH 7.2, […] and […] and then placed in staining solution (2 mM 5-bromo-4-chloro-3-indolyl-β-D-[…] [X-Glu; Sigma] in rinse solution), vacuum infiltrated for 10 minutes and finally incubated at 37° C. for 2 hours or overnight. Seedlings were examined using a microscope and photographed with a Digital Nikon 990 Camera.

AtCel5 transcript = test: RT-PCR of AtCel5 transcript in roots, normalized to KOR; settings: 10 μM ACC
Description: For comparative RT-PCR analysis of roots exposed to various treatments, or the analysis of expression of the AtCel5 duplicon, a two-step RT-PCR was performed using the Retroscript kit (Ambion, Austin, Tex.). Total root RNA was pretreated with DNAse prior to reverse transcription (Ambion DNA-free kit). The first strand cDNA was prepared with oligo dT primers and used as template for PCR reactions. RT-PCR was normalized using Actin-11 or KOR as internal standards. […] Each cycle included a denaturation and an extension step at 94° C. for 45 seconds, and at 72° C. for 70 seconds, respectively. The annealing step was carried out for 30 seconds at the temperature optimal for each primer pair: • AtCel5 (set II), 58° C.; KOR, 62° C.; Actin-11, 60° C.; AtCel3, 65° C.

Compound: CC1=CC(=O)CC(C)(C)C1(O)/C=C/C(C)=C\C(=O)O (stereo not drawn) [ABA, abscissic acid]
- AtCel5 expression after ABA treatment (AtCel5-GUS expression; 24 hour ABA treatment, both experiments, vs control): reduced by almost half
- Relative activity (GUS activity relative to controls) (AtCel5-GUS expression; Experiment number 1: seedlings 7 days post-germination): 0.53 ± 0.04
- Relative activity (GUS activity relative to controls) (AtCel5-GUS expression; Experiment number 2: seedlings 10 days post germination): 0.42 ± 0.06

Compound: NC1(C(=O)O)CC1 [ACC, 1 aminocyclo-propane-1 carboxylic acid]
- AtCel5-GUS expression once growth stalled ([1]; after 10 days on ACC plates, staining reappeared on fresh media without ACC): disappeared
- GUS staining in the root cap ([1]; seedlings grown for 10 days on MS plates containing 10 μM ACC): still observed
- AtCel5 transcript, control vs treated roots (AtCel5 transcript): no significant changes

Compound: O=C(O)Cc1c[nH]c2ccccc12 [IAA, indole-3-acetic acid]
- Quantitative GUS activity in roots compared to controls (AtCel5-GUS expression; agar plates supplemented with 10 μM IAA): large decrease
- GUS activity compared to controls (AtCel5-GUS expression; seedlings grown on liquid MS containing IAA (50 μM)): greatly reduced

Compound: O=C(O)c1ccccc1C(=O)Nc1cccc2ccccc12 [NPA, N-1-naphthylphthalamic acid]
- Quantitative GUS activity in roots compared to controls (AtCel5-GUS expression; agar plates supplemented with 1 μM NPA): large decrease
